According to PubChem BioAssay AID493130 (Broad Institute, 2011):
Inconclusive results are not listed. Calls of active or inactive are those of the source.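 How the source made its calls: active means signal-lowering compounds whose fitted half-maximal concentration is at most ten times their highest tested dose; inconclusive means flat fit between -30 and -70%, or poor fit; inactive means flat within 30%, signal rising, or potency beyond limit.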

molecular target: POS-1 (Caenorhabditis elegans) binding to mex-3 RNA; assay: C. elegans POS-1 RNA interaction disruptors – biochemical, fluorescence polarization, cherry-picked samples, set 2, counter-screen for MEX-5 RNA-binding inhibitor project, dose response (AID 493130); details: POS-1/mex-3 RNA fluorescence polarization, 1 h;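 further: POS-1 as maltose binding protein fusion made in E. coli with FITC RNA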

| Structure (SMILES) | AC50 |
| --- | --- |
| CC1=C(C#N)C(=O)N(C2CCS(=O)(=O)C2)C(=O)/C1=C\c1ccco1 (stereo not drawn) | 3.66 µM |
| CN1Cc2sc(N)c(C#N)c2CC1(C)C | 9.75 µM |
| Cc1cc(C(=O)NNC(=O)CCCCC(=O)NNC(=O)c2cc(C)[nH]n2)n[nH]1 | > 10 µM (inactive) |
| CCn1c(SCc2nc3sc(C(=O)O)c(C)c3c(=O)[nH]2)nc2ccccc21 | 10.3 µM |
| Cc1ccc(O)c(C(=O)c2cc(C#N)c(=O)n(-c3nccs3)c2)c1 | 4.09 µM |
| O=C1CSC(=S)N1/N=C/c1cc(Br)c(O)c(Br)c1 | 10.2 µM |
| CNC(=O)/C(C#N)=C/c1ccc(-c2nc3ccccc3s2)o1 | 3.91 µM |
| COc1ccc2c(c1)NP(=S)(Oc1ccccc1)N2 (stereo not drawn) | 6.91 µM |
| O=c1[nH]c(-[n+]2ccccc2)c(/C=N/NC([S-])=Nc2ccccc2)s1 | 5.9 µM |
| O=C(O[C@@H]1OC2COC(=O)c3cc(O)c(O)c(O)c3-c3c(cc(O)c(O)c3O)C(=O)O[C@@H]([C@H]1O)[C@@H]2O)c1cc(O)c(O)c(O)c1 | 2.27 µM |
| COc1ccc(NC(=S)NNc2ccc(S(=O)(=O)Nc3ccccc3C(=O)O)cc2[N+](=O)[O-])cc1 | 4.53 µM |
| O=C(N/N=C/C1C(=O)NC(=S)N(c2ccccc2)C1=O)c1cc(Br)c(O)c(Br)c1 (stereo not drawn) | 7.64 µM |
| CCN1CC=C2C(C#N)=C(N)C(C#N)(C#N)[C@H](c3ccoc3)[C@H]2C1 | 6.73 µM |
| O=c1ccc2cc3c([nH]c4ccc(Br)cc43)oc-2c1O | 1.64 µM |
| NS(=O)(=O)c1ccc(N=Nc2c(=O)[nH]n3c(=O)c4c([nH]c23)CCCC4)cc1 | 0.251 µM |
| CN1CC=C2C(C#N)=C(N)C(C#N)(C#N)[C@H](c3ccoc3)[C@H]2C1 | 5.4 µM |

same assay, conditions: POS-1/mex-3 RNA fluorescence polarization, 1 h; at 10 µM (top of the series)

| Structure (SMILES) | activity change, negative = inhibition |
| --- | --- |
| Cc1nc2c(N=Nc3ccccc3F)c(N)nn2c(N)c1C#N | inactive |
| COc1ccc(C(=O)N2C(=S)NC(=O)/C2=C\c2ccc(C)cc2)cc1 | inactive |
| CCCCN(CCCC)CCNC(=O)CNC(=O)c1cccs1 | inactive |
| Cc1ccc(N/N=C(\C#N)C(=O)c2ccsc2)cc1 | inactive |
| Cc1ccc(-c2cc(C(=O)O)c3cc(Br)ccc3n2)o1 | inactive |
| O=c1cc(-c2ccccc2)oc2ccc(O)cc12 | inactive |
| CN=c1scc(-c2ccco2)n1/N=C/c1ccc(O)c(O)c1 | inactive |
| CC1=C(C(=O)OCc2ccccc2)C(c2cccc([N+](=O)[O-])c2)NC(=O)N1C (stereo not drawn) | inactive |
| Cc1ccc(S(=O)(=O)c2cc3c(=O)n4ccccc4nc3n(C)c2=N)cc1 | inactive |
| COc1cc(CCC(=O)Nc2ccc(Cl)c(C(F)(F)F)c2)cc(OC)c1OC | inactive |
| CCOC(=O)Cc1csc(NC(=O)c2sc3nc4c(C)cc(C)cc4cc3c2N)n1 | inactive |
| CCOC(=O)c1cnc2c(N=Nc3ccccc3)c(N)nn2c1N | inactive |
| Cc1cc2ccccc2n1CCNC(=O)c1ccc(Br)o1 | inactive |
| CCOC(=O)C1C(=O)C=C(/C=C/c2ccc(N(C)C)cc2)CC1c1ccccc1 (stereo not drawn) | inactive |
| Cc1cc2n(n1)C(c1c[nH]c3ccccc13)Nc1ccccc1-2 (stereo not drawn) | inactive |
| COc1ccccc1N1C(=O)S/C(=C\c2cccs2)C1=O | inactive |
| O=C(Nc1ccc(OCc2ccccc2)cc1)Nc1cccnc1 | inactive |
| O=C(NNS(=O)(=O)c1ccc(F)cc1)c1cnccn1 | inactive |
| O=C1/C(=C\c2ccc(Br)o2)Cc2ccccc21 | inactive |
| O=C(CCN1C(=O)/C(=C\c2ccco2)SC1=S)Nc1ccc(C(=O)O)c(O)c1 | inactive |
| CCC(=O)N(CC)C1=C(O)c2ccccc2C(=O)C1=O | inactive |
| Cc1ccc(S(=O)(=O)N/N=C/c2ccc(O)c(O)c2)cc1[N+](=O)[O-] | inactive |
| O=C1NC(=O)N(Cc2ccccc2)C(=O)/C1=C\c1ccco1 | inactive |
| CN(C)S(=O)(=O)c1ccc(Cl)c(C(=O)Nc2cccc3ncccc23)c1 | inactive |
| COc1ccc(C[C@@H]2c3cc(O)c(OC)cc3CCN2C)cc1O | inactive |
| CCCc1nc2ccccc2c(=O)n1/N=C/c1ccc(O)c(O)c1 | inactive |

| Structure (SMILES) | activity change, negative = inhibition |
| --- | --- |
| COc1c(O)ccc(/C=C(\C#N)c2nc3ccccc3[nH]2)c1[N+](=O)[O-] | inactive |
| COCC(C)N1CCC(n2nccc2NC(=O)CCCc2ccccc2)CC1 (stereo not drawn) | inactive |
| O=C(O)CC1S/C(=N/N=C/c2ccc(-c3ccccc3[N+](=O)[O-])o2)NC1=O (stereo not drawn) | inactive |
| CC1(C)CC(=O)C2=C(C1)OC(N)=C(C#N)C2c1ccccc1[N+](=O)[O-] (stereo not drawn) | inactive |
| O=c1[nH]cnc2c1C(c1ccccc1[N+](=O)[O-])c1c(nc[nH]c1=O)O2 | inactive |
| CCOC(=O)C1Cc2ccccc2C(=O)O1 (stereo not drawn) | inactive |
| CSc1nc(N)c(N=Nc2ccc([As](=O)(O)O)cc2)c(=O)[nH]1 | inactive |
| COC(=O)C1CSc2[nH]c(=O)sc2C1c1ccc(O)c(OC)c1 (stereo not drawn) | inactive |
| Cc1ccc(Nc2nc(-c3ccc(C)cc3)c(CC(=O)O)s2)cc1 | inactive |
| O=C(CCN1C(=O)/C(=C/c2ccccc2Cl)SC1=S)NNC(=O)c1ccccc1O | inactive |
| CCc1ccc(/C=C2/C(=O)N(CC)C(=S)N2C)s1 | inactive |
| O=Cc1ccc2ccc3cccnc3c2n1 | inactive |
| O=C1N=C(N2C=CC(=C3C=CNC=C3)C=C2)/C(=C/N=NC(=O)c2ccccc2)S1 | inactive |
| CN1C(=O)/C(=C/c2cn(CC(=O)N3CCCCC3)c3ccccc23)c2ccccc21 | inactive |
| O=C(O)c1ccc(/C=C2\SC(=S)N(Nc3ccccc3)C2=O)cc1 | inactive |
| O=[N+]([O-])c1ccc(C2=CSC3=NCCN23)cc1 | inactive |
| O=c1cc[nH]c2c1ccc1c(=O)cc[nH]c12 | inactive |
| COC(=O)c1cccc(-c2ccc(C(c3c(C)[nH][nH]c3=O)c3c(C)[nH][nH]c3=O)o2)c1 | inactive |
| Cc1sc2ncnc(N/N=C/c3ccccc3O)c2c1C | inactive |
| Oc1sc(C=Nc2ccc(F)cc2)c2ccccc12 | inactive |
| COc1nc(N/N=C/c2ccc(-c3ccccc3[N+](=O)[O-])o2)nc(N2CCOCC2)n1 | inactive |
| CCC(=O)NCCc1nc2ccccc2n1Cc1ccccc1 | inactive |
| COc1ccc(OC)c(Nc2nc(-c3ccc(O)c(O)c3)cs2)c1 | inactive |
| COc1ccccc1NCc1cc(=O)oc2c(C)c(O)ccc12 | inactive |
| C=CCn1c(Cc2nc3ccc(Cl)cc3[nH]2)n[nH]c1=S | inactive |
| CCc1nnc2c(N(C)C)nc3ccccc3n12 | inactive |

| Structure (SMILES) | activity change, negative = inhibition |
| --- | --- |
| CCOC(=O)/C=c1\s/c(=C\c2ccc(-c3ccccc3)cc2)c(=O)n1CC(=O)NCc1ccc2c(c1)OCO2 | inactive |
| CCOC(=O)NC(=O)COC(=O)c1ccc(Sc2ncn[nH]2)c([N+](=O)[O-])c1 | inactive |
| CCOc1nc(-c2ccccc2)c2cc(Br)ccc2n1 | inactive |
| CCOC(=O)C1CSc2[nH]c(=O)sc2C1c1ccccc1 (stereo not drawn) | inactive |
| Brc1ccc(-c2cn3nc4c(nc3n2)CCCC4)cc1 | inactive |
| COc1ccc(NC(=O)c2cccs2)cn1 | inactive |
| CCCCn1c(N)c(N(Cc2ccccc2OC)C(=O)C(C)C)c(=O)[nH]c1=O | inactive |
| Cc1c(N=NC2=C(O)CCCC2=O)c(=O)n(-c2ccccc2)n1C | inactive |
| C#CCOCCOCCOCCNc1nc(N2CCN(C(=O)[C@H]([C@@H](C)CC)n3cc([C@@H](N)CO)nn3)CC2)nc(N2CCN(C(=O)[C@H]([C@@H](C)CC)n3cc([C@@H](N)CO)nn3)CC2)n1 | inactive |
| CN(C)c1ccc(/C=N/NC(=O)c2cnc3ccccc3c2)cc1 | inactive |
| O=c1cc(-c2ccccc2Cl)oc2c(NS(=O)(=O)c3ccccc3OC(F)(F)F)ccc(O)c12 | inactive |
| Cc1cc(C)cc(N2C(=O)NC(=O)/C(=C/c3cccn3-c3ccc(Cl)cc3)C2=O)c1 | inactive |
| COC(=O)c1cc(O)c(O)c(O)c1 | inactive |
| COC(=O)COc1ccc2c(c1)O/C(=C\c1cccc([N+](=O)[O-])c1)C2=O | inactive |
| O=C(/C=C/Nc1ccc(S(=O)(=O)Nc2cnc3ccccc3n2)cc1)c1ccccc1 | inactive |
| CC1(C)CC(=O)C2=C(C1)Nc1cc(Cl)ccc1S2 | inactive |
| CC1=NN(C(N)=S)C(=O)C1N=Nc1cccc(Cl)c1C (stereo not drawn) | inactive |
| Nc1ccccc1C(=O)NNC(=O)C(=O)/C=C(\O)c1ccccc1 | inactive |
| CSc1nsc2nc(=O)c(/C=C3\C(C)=Nc4ccc(C)cc43)c(N)n12 | inactive |
| CCOc1cc(/C=N/Nc2nc(=O)[nH]nc2C)ccc1O | inactive |
| CCN1C/C(=C/c2ccc(OC)c(O)c2)C(=O)/C(=C/c2ccc(OC)c(O)c2)C1 | inactive |
| Cn1ccc(=Nc2ccc(NC(=O)c3ccc(N=c4ccn(C)c5ccc([N+](=O)[O-])cc45)cc3)cc2)cc1 | inactive |
| NC(=O)C(=O)N/N=C1\CCc2ccccc21 | inactive |
| O=C(O)c1cccc(NC2=C(Cl)C(=O)c3ccccc3C2=O)c1 | inactive |
| O=C1CS/C(=N\NC(=O)c2ccccc2)N1 | inactive |
